Experimental data from PubChem BioAssay (NCI).
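Briefly, cells in 96-well plates were exposed to five compound concentrations for 48 h, and endpoints were estimated by linear interpolation. At the TGI there is no net growth.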

How the values were obtained:
Test in all cases: DTP human tumour cell line panel, 48 h
HCT-15 colon = tested on: HCT-15 colon
CCRF-CEM leukemia = tested on: CCRF-CEM leukemia
SF-268 CNS = tested on: SF-268 CNS
HT29 colon = tested on: HT29 colon
NCI/ADR-RES ovarian = tested on: NCI/ADR-RES ovarian
SW-620 colon = tested on: SW-620 colon
OVCAR-5 ovarian = tested on: OVCAR-5 ovarian
UACC-257 melanoma = tested on: UACC-257 melanoma
OVCAR-8 ovarian = tested on: OVCAR-8 ovarian
SK-MEL-28 melanoma = tested on: SK-MEL-28 melanoma
IGROV1 ovarian = tested on: IGROV1 ovarian
M14 melanoma = tested on: M14 melanoma
DU-145 prostate = tested on: DU-145 prostate
MDA-MB-231 breast = tested on: MDA-MB-231 breast
CAKI-1 renal = tested on: CAKI-1 renal
MDA-MB-435 = tested on: MDA-MB-435
SF-295 CNS = tested on: SF-295 CNS
RPMI-8226 leukemia = tested on: RPMI-8226 leukemia
SNB-75 CNS = tested on: SNB-75 CNS
MOLT-4 leukemia = tested on: MOLT-4 leukemia
NCI-H460 lung = tested on: NCI-H460 lung
NCI-H226 lung = tested on: NCI-H226 lung
ACHN renal = tested on: ACHN renal
HCC-2998 colon = tested on: HCC-2998 colon
HOP-92 NSCLC = tested on: HOP-92 NSCLC
UO-31 renal = tested on: UO-31 renal
NCI-H522 lung = tested on: NCI-H522 lung
MDA-N = tested on: MDA-N
EKVX NSCLC = tested on: EKVX NSCLC
HS 578T breast = tested on: HS 578T breast
HL-60(TB) leukemia = tested on: HL-60(TB) leukemia
SNB-19 CNS = tested on: SNB-19 CNS
UACC-62 melanoma = tested on: UACC-62 melanoma
TK-10 renal = tested on: TK-10 renal
MCF7 breast = tested on: MCF7 breast
SN12C renal = tested on: SN12C renal
MALME-3M melanoma = tested on: MALME-3M melanoma
A498 renal = tested on: A498 renal
HOP-62 NSCLC = tested on: HOP-62 NSCLC
RXF 393 renal = tested on: RXF 393 renal
U251 CNS = tested on: U251 CNS
A549 NSCLC = tested on: A549 NSCLC
SR leukemia = tested on: SR leukemia
LOX IMVI melanoma = tested on: LOX IMVI melanoma
PC-3 prostate = tested on: PC-3 prostate
SK-MEL-5 melanoma = tested on: SK-MEL-5 melanoma
OVCAR-3 ovarian = tested on: OVCAR-3 ovarian
786-0 renal = tested on: 786-0 renal
COLO 205 colon = tested on: COLO 205 colon
K-562 leukemia = tested on: K-562 leukemia
KM12 colon = tested on: KM12 colon
NCI-H23 lung = tested on: NCI-H23 lung
SK-OV-3 ovarian = tested on: SK-OV-3 ovarian
SF-539 CNS = tested on: SF-539 CNS
HCT-116 colon = tested on: HCT-116 colon
T-47D breast = tested on: T-47D breast
OVCAR-4 ovarian = tested on: OVCAR-4 ovarian

Compound CN(C)c1nc(=NCc2ccccc2)ss1 has a TGI (HCT-15 colon) greater than 10 µM, a TGI (CCRF-CEM leukemia) of 4.66 µM and a TGI (SF-268 CNS) greater than 10 µM. The TGI (HT29 colon) was greater than 10 µM, the TGI (NCI/ADR-RES ovarian) was greater than 10 µM and the TGI (SW-620 colon) was greater than 10 µM. The TGI (OVCAR-5 ovarian) was greater than 10 µM, the TGI (UACC-257 melanoma) was greater than 10 µM and the TGI (OVCAR-8 ovarian) was greater than 10 µM. For the same compound, the TGI (SK-MEL-28 melanoma) was greater than 10 µM, the TGI (IGROV1 ovarian) was greater than 10 µM and the TGI (M14 melanoma) was greater than 10 µM. For the same compound, the TGI (DU-145 prostate) was greater than 10 µM, the TGI (MDA-MB-231 breast) was greater than 10 µM and the TGI (CAKI-1 renal) was greater than 10 µM. It also gave a TGI (MDA-MB-435) greater than 10 µM, a TGI (SF-295 CNS) greater than 10 µM and a TGI (RPMI-8226 leukemia) greater than 10 µM. For the same compound, the TGI (SNB-75 CNS) was greater than 10 µM, the TGI (MOLT-4 leukemia) was greater than 6.19 µM and the TGI (NCI-H460 lung) was greater than 10 µM. The TGI (NCI-H226 lung) was greater than 10 µM, the TGI (ACHN renal) was greater than 10 µM and the TGI (HCC-2998 colon) was greater than 10 µM. It also gave a TGI (HOP-92 NSCLC) greater than 10 µM, a TGI (UO-31 renal) greater than 10 µM and a TGI (NCI-H522 lung) greater than 10 µM. For the same compound, the TGI (MDA-N) was greater than 10 µM, the TGI (EKVX NSCLC) was greater than 10 µM and the TGI (HS 578T breast) was greater than 10 µM. For the same compound, the TGI (HL-60(TB) leukemia) was greater than 8.45 µM, the TGI (SNB-19 CNS) was greater than 10 µM and the TGI (UACC-62 melanoma) was greater than 10 µM. For the same compound, the TGI (TK-10 renal) was greater than 10 µM, the TGI (MCF7 breast) was greater than 10 µM and the TGI (SN12C renal) was greater than 10 µM. For the same compound, the TGI (MALME-3M melanoma) was greater than 10 µM, the TGI (A498 renal) was greater than 10 µM and the TGI (HOP-62 NSCLC) was greater than 10 µM. The TGI (RXF 393 renal) was greater than 10 µM, the TGI (U251 CNS) was greater than 10 µM and the TGI (A549 NSCLC) was greater than 10 µM. For the same compound, the TGI (SR leukemia) was 6.37 µM, the TGI (LOX IMVI melanoma) was greater than 10 µM and the TGI (PC-3 prostate) was greater than 10 µM. It also gave a TGI (SK-MEL-5 melanoma) greater than 10 µM, a TGI (OVCAR-3 ovarian) greater than 10 µM and a TGI (786-0 renal) greater than 10 µM. The TGI (COLO 205 colon) was greater than 10 µM, the TGI (K-562 leukemia) was greater than 10 µM and the TGI (KM12 colon) was greater than 10 µM. The TGI (NCI-H23 lung) was greater than 10 µM, the TGI (SK-OV-3 ovarian) was greater than 10 µM and the TGI (SF-539 CNS) was greater than 10 µM. It also gave a TGI (HCT-116 colon) greater than 10 µM, a TGI (T-47D breast) greater than 10 µM and a TGI (OVCAR-4 ovarian) greater than 10 µM.
